Experimental data published in PMC6130628, “Some pharmacokinetic parameters of salvianolic acid A following single-dose oral administration to rats” (Pharmaceutical Biology, 2018).
Like-named read-outs stand apart in the source and are kept apart here.

Tests used:
Caco-2 cell monolayer = test: Bidirectional transport experiments in the Caco-2 cell culture model; type: in vitro ADME
Description: (§1) Caco-2 cells (passage number 34–36, American Type Culture Collection, Manassas, VA) were cultured at 37 °C in an atmosphere of 5% CO2 and 90% relative humidity in Dulbecco’s modified Eagle’s medium supplemented with 10% fetal bovine serum, 1% penicillin–streptomycin, 1% HEPES, 1% sodium pyruvate and 1% minimal essential medium nonessential amino acids. After harvesting at 90% confluence, the cells were seeded on to 0.4 μm polycarbonate membrane transwell inserts (12 mm diameter) at a density of 1.5 × 10^5 cells/cm^2. The culture media was changed every other day during the first 7 days after seeding and once a day thereafter. Cell monolayers were ready for experiments from 20 to 24 days postseeding.
(§2) Experiments in triplicate were performed in HBSS (pH =7.4).To ensure the stability of Sal A in HBSS, VC was applied in this study as stabilizer. The monolayers were washed three times with prewarmed HBSS (37 °C) before use. The integrity of the Caco-2 monolayers was monitored by measuring the transepithelial electrical resistance, and only monolayers with values ≥400 Ω/cm^2 were used. The monolayers were incubated with HBSS at 37 °C for 30 min, and then the incubation medium was aspirated. Afterwards, bidirectional transport experiments were conducted. Sal A solution of appropriate concentrations in HBSS (containing VC 1 0^−4 mol/L) were loaded to the donor compartments and the blank HBSS (containing VC 1 0^−4 mol/L) was added to the receiver compartments. Seven sequential samples (50 μL) were collected at different times (0, 30, 60, 90, 120, 150, 180 min) from the receiver side. The same volume of receiver medium was replaced after each sampling. The collected samples were added into tubes with 40 μL MeOH–H2O (50:50, v/v, containing VC 100 μg/mL). Then, 10 μL of the IS spiking solution (butyl paraben, 1 μg/mL) was added. After centrifugation at 13,400 rpm for 5 min, 20 μL of the supernatant was injected to the LC–MS system.
(§3) Influence of the stabilizer on the transport of Sal A has also been tested under the condition of different concentrations of VC. The samples were collected, treated and analyzed according to the same procedure.
(§4) The apparent permeability coefficient (Papp) was calculated according to the following equation: Papp=(ΔQ/Δt)/(A×C0) where ΔQ/Δt is the linear appearance rate of the tested compound in the receiver compartments, A is the surface area of the cell monolayer and C0 is the initial concentration of the tested compound in the donor side.

[1] = as above; type: in vitro ADME; settings: human; for Papp A→B at 180 min: read-out: Papp Apical → basolateral; for Papp B→A at 180 min: read-out: Papp Basolateral → apical
Description: as §1, §2, §3, §4

[2] = Caco-2, pH 7.4, Sal A 10^–4/3 mol/L, HBSS pH 7.4, VC 10^−4 mol/L
[3] = Caco-2, pH 7.4, Sal A 10^–4/9 mol/L, HBSS pH 7.4, VC 10^–4 mol/L
[4] = Caco-2, pH 7.4, Sal A 10^–4/9 mol/L, VC 10^–3/3 mol/L
[5] = Caco-2, pH 7.4, Sal A 10^–4/9 mol/L, VC 10^–3 mol/L
[6] = Caco-2, pH 7.4, Sal A 10^–4/27 mol/L, HBSS pH 7.4, VC 10^−4 mol/L

## O=C(/C=C/c1ccc(O)c(O)c1/C=C/c1ccc(O)c(O)c1)O[C@H](Cc1ccc(O)c(O)c1)C(=O)O [Sal A, Salvianolic acid A]
Caco-2 cell monolayer; different VC concentrations, p> 0.05
  influence of VC concentration on the amount of Sal A transported: no significant difference
Caco-2 cell monolayer; poorly absorbed: Papp <1 × 10^−6 cm/s
  membrane permeability (classification by Papp): poor membrane permeability
[1]; [2]
  Papp A→B at 180 min: 0.156 ± 0.0412 ×10⁻⁶ cm/s
  Papp B→A at 180 min: 0.508 ± 0.0118 ×10⁻⁶ cm/s
[1]; [3]
  Papp A→B at 180 min: 0.152 ± 0.0055 ×10⁻⁶ cm/s
  Papp B→A at 180 min: 0.605 ± 0.0175 ×10⁻⁶ cm/s
[1]; [4]
  Papp A→B at 180 min: 0.155 ± 0.003 ×10⁻⁶ cm/s
  Papp B→A at 180 min: 0.507 ± 0.087 ×10⁻⁶ cm/s
[1]; [5]
  Papp A→B at 180 min: 0.153 ± 0.0028 ×10⁻⁶ cm/s
  Papp B→A at 180 min: 0.478 ± 0.0453 ×10⁻⁶ cm/s
[1]; [6]
  Papp A→B at 180 min: 0.641 ± 0.0576 ×10⁻⁶ cm/s
  Papp B→A at 180 min: 0.987 ± 0.121 ×10⁻⁶ cm/s
[1]; pH 7.4, Caco-2 monolayer, read-out: ratio of PB–A to PA–B (Papp basolateral to apical / apical to basolateral)
  efflux ratio at 180 min: ~3
